# In US20100190743A1, “Method and Composition for Treatment of a Mucosal Tissue Disorder” (Chitogenics, Inc., priority 2005, published 2010):
# Tests used:
# interstitial cystitis = conditions: cited from earlier work
# [1] = system: rat model of Interstitial Cystitis; assay: Efficacy of sNOCC in reducing inflammation in a rat model of interstitial cystitis (Example 2), bladder histology inflammatory score; assay type: in vivo
# Method: Animals: Female Sprague-Dawley rats (225-250 g) were purchased from Charles River Laboratories. Animals were provided with food and water ad libitum. Intra-vesicular inoculation of protamine sulfate (PS) and LPS: Rats were anesthetized with sodium pentobarbital (65 mg/kg). The surface area around the urethral opening was swabbed with 70% isopropyl alcohol and Betadine. A lubricated sterile catheter (PE-50), handled with sterile gloves, was inserted into the bladder through the urethral opening. The catheter was connected to a 1 ml syringe via a 25 G needle and the bladder was emptied as described above. One group of rats was inoculated with 1 ml PS (10 mg/ml) in phosphate buffered saline (PBS) into the bladder via the catheter. After 45 minutes, the bladders were emptied, washed with PBS, then given a second treatment with 1 ml LPS (750 μg/ml) in PBS for 30 minutes. […]
# The parameters of inflammation measured were: increased venous blood vessel size and volume (venous congestion), edema, cellular infiltration, and epithelial damage. […] The parameters were measured by a blinded observer using a five point score with 0 being the least severe and 5 being the most severe. A total inflammatory score was calculated for each rat by adding together the scores of the four inflammatory parameters. A mean total inflammatory score was calculated for each group. […]
compound,measurement,setting,value
"C[S+](C)[O-] [DMSO, dimethylsulfoxide]",average length of response,interstitial cystitis; instillation into the bladder for six to eight weeks,six
same,response rate,"interstitial cystitis; instillation into the bladder for six to eight weeks, placebo 18%",53%
"Nc1ccc(O)c(C(=O)O)c1 [saline + 5ASA, 5-aminosalicylic acid]",Mean Inflammatory Score (±SEM),"[1]; agent 1 ml intravesical 1 day after PS/LPS, sacrifice day 5 post inoculation, total of four parameters each scored 0-5, saline control 12.7 (±1.5)",7.9 (±1.8)
same,% reduction of inflammation from saline treated control,"[1]; from mean inflammatory score, day 5 post inoculation",37.5%
oxychlorosene sodium,results relative to instillation of DMSO,interstitial cystitis; Messing et al. 1978,Equivalent results
